For this experiment, the target named is RBD of spike protein binding with ACE2 protein (Severe acute respiratory syndrome coronavirus 2, UniProt P0DTC2).

For Bovine serum albumin [BSA], the “Competitive inhibition of ACE2 binding with RBD of spike” value is recorded as “non-competitive binding signal”.

For the origin of these results see patent publication US20240409669A1, “Neutralizing Trivalent Protein-DNA Molecules (TRI-PDBODY) for SARS-COV-2 Infection Treatment” (priority 2021, published 2024).
